One compound from paper PMC9555310, “Novel inhibitors and activity-based probes targeting serine proteases” (Frontiers in Chemistry, 2022) can be followed below.

This test deals with T1, NE (Homo sapiens, UniProt P08246).
T1 construct: purchased Calbiochem
T1 sequence (P08246 30-267): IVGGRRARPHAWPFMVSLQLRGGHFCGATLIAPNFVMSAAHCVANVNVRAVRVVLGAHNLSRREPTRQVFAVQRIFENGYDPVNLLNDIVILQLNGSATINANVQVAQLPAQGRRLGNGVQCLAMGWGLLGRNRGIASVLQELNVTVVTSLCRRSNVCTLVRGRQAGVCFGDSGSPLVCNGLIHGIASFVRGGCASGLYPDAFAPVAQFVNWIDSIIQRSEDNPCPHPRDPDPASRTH
The test can be described thus: Activity-based profiling of NE (SDS-PAGE, streptavidin-HRP western blot). Type of test: binding. To be noted: 50 μM ABP, 30 min, 37°C; labelling extinguished by heat inactivation of NE. On the procedure: Samples of recombinant protease (trypsin, plasmin, thrombin, chymotrypsin, or HNE, as indicated in the relevant figure legends) were treated with each of the newly synthesized compounds at a concentration of 50 μM, for 30 min, at 37°C. A control sample (no ABP) was prepared by treating the recombinant protease with solvent vehicle (DMF) only, used to prepare the stock solution of each ABP. Samples were also pre-treated (±90°C for 30 min) before being incubated with each putative ABP. With trypsin and thrombin, further samples were prepared where Z-Arg^P-(OPh)2 or NAP559, respectively, was added 30 min prior to the addition of the ABP under examination. […]
FIGURE 7 Activity Based Profiling of serine proteases by peptide N-Alkyl glycine carbamates. […] CF Sol (sample 26w) was used at a final concentration of 2.5% (v/v), and the level of NE contained therein was measured using Succinyl-Ala-Ala-Pro-Val-NHMec (50 μM), in the absence (-- o --) and presence (-- o --) of NAP800 (50 μM). […]
Following transfer, the extra protein binding sites on the membrane were blocked by addition of 3% (w/v) BSA in TBST (20 mM Tris, 137 mM NaCl, 1% (v/v) Tween 20, pH 7.6) and agitated gently at room temperature for 30 minutes. The biotin-labelled proteases were then detected by addition of Streptavidin-HRP (Vector Laboratories) in 3% (w/v) BSA in TBST at a concentration of 1:20000, for 1 hour at room temperature. […]

For the compound `CC(C)N(CC(=O)NCC(=O)NCC(=O)NCCCOCCOCCOCCCNC(=O)CCCCC1SCC2NC(=O)NC21)C(=O)ON1C(=O)CCC1=O` (stereo not drawn) [NAP800, Succinimidoyl-CO-NVal-Gly-Gly-PEG-Biotin], the “labelling of NE by ABP (western blot)” value is listed as “labels a protein band corresponding to the expected molecular size/mass of NE”.
